Read-outs that look alike come from different tables or passages of the source.
Columns and labels:
human A2A AR = human A2A AR (Homo sapiens, UniProt P29274); assay: cAMP functional assay in CHO-K1/ADORA2A/Gα15 cells (NECA-stimulated, HTRF); format: cell-based; conditions: for IC50: CHO cells expressing hA2A AR, read-out: cAMP IC50 hA2A AR; for IC50 / inhibition at 0.01 µM / inhibition at 0.1 µM / inhibition at 1 µM: mean ± SEM; for inhibition at 0.01 µM / inhibition at 0.1 µM / inhibition at 1 µM: CHO-K1, relative to ZM241385 at 1 μM; for inhibition at 0.01 µM: compound at 10 nM, read-out: hA2A AR (%) inhibition of cAMP, 10 nM; for inhibition at 0.1 µM: compound at 100 nM, read-out: hA2A AR (%) inhibition of cAMP, 100 nM; for inhibition at 1 µM: compound at 1000 nM, read-out: hA2A AR (%) inhibition of cAMP, 1000 nM;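 as to all read-outs here: inhibition of NECA-driven intracellular cAMP build-up in the A2A-expressing cells, quantified with cAMP-d2 plus Eu3+-labelled anti-cAMP detection reagent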
Experimental: (§1) In the cAMP assay, CHO-K1/ADORA2A/Gα15 cells expressing human A2A AR and CHO-K1/ADORA2b/Gα15 cells expressing human A2B AR were activated by 5′-(N-ethylcarboxamido)adenosine (NECA) and triggered the accumulation of intracellular cAMP concentration.
(§2) CHO-K1/ADORA2A/Gα15 cells expressing human A2A AR and CHO-K1/ADORA2b/Gα15 cells expressing human A2B AR were both constructed by Genscript Biotech Corporation. […] The test stock solutions were diluted with different gradients for use. The procedure was exemplified by the cAMP functional assay on the A2A receptor: 10,000 cells/well of CHO-K1/ADORA2A/Gα15 were seeded in a 384-well plate in 20 μl of assay buffer. […] Then, 10 μl of detection reagent (cAMP-d2 and anti-cAMP-Eu3+) was added into each well of the plate and incubated at room temperature for 1 h.

human A2B AR = target: T1, human A2B AR (Homo sapiens, UniProt P29275); assay: cAMP functional assay in CHO-K1/ADORA2b/Gα15 cells (NECA-stimulated, HTRF); format: cell-based; conditions: for inhibition at 0.1 µM: compound at 100 nM, relative to ZM241385 at 1 μM, read-out: hA2B AR (%) inhibition of cAMP, 100 nM
T1 sequence (P29275 1-332): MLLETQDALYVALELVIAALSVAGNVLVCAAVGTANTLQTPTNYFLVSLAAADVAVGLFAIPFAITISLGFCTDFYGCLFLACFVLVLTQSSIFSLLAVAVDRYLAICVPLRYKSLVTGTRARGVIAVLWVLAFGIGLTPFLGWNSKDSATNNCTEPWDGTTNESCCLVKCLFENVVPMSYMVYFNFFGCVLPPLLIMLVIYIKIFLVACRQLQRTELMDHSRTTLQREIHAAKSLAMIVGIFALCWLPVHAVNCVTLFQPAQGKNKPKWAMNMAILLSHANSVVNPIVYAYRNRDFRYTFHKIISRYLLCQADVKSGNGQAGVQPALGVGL
Experimental: as §1, §2

[1] = In vivo pharmacokinetics study in Balb/c mice; conditions: for Cmax / Tmax / half-life / AUC(0-inf) / bioavailability / AUC(0-t): female, Balb/c, mouse, plasma; for bioavailability: oral 30 mg/kg vs i.v. 10 mg/kg, read-out: F (absolute bioavailability)
Experimental: The in vivo pharmacokinetic (PK) profiles of compounds 7f and 7i were examined in […] Balb/c mice (Table 5 and Figure 5). […] After the intravenous (i.v.) administration of 10 mg/kg, the maximum plasma concentration of compounds 7f and 7i were 5010.30 µg/l at 0.25 h and 7266.60 µg/l at 0.25 h, respectively. […] These PK parameters can be used to evaluate the drug-like properties of compounds 7f and 7i, so as to clarify their effectiveness and obtain better clinical treatment effects.
The absolute bioavailabilities of synthetic compounds (7f, 7i) were studied in female Bal b/c mice (Jinan Pengyue Experimental Animal Breeding Co., Ltd.). The mice were divided into four groups each having six mice and were collected at crossover time points, with three mice at each point. Pharmacokinetics (PK) was evaluated after a single dose of 30 mg/kg oral gavage (Oral) or 10 mg/kg intravenous (i.v.) administration. After oral administration and i.v. injection, blood samples were obtained from the suborbital veniplex at pre, 15 min, 30 min, 1 h, 2 h, 4 h, 6 h, 8 h, 12 h, 24 h (Oral) and pre, 5 min, 15 min, 30 min, 1 h, 2 h, 4 h, 6 h, 8 h, 12 h, 24 h (i.v.). Approximately 200 μl of blood was collected at each time point. All blood samples were put into plastic microcentrifuge tubes containing Heparin-Na as an anticoagulant. Microcentrifuge tubes with blood samples and anticoagulant were inverted several times for proper mixing of the tube contents to centrifugation for plasma. Plasma samples will be centrifuged at 12,000 rpm for 8 min at 4 °C to obtain the supernatant. The serum sample (25 μl) was treated with acetonitrile (100 μl), after which the mixture was vortex-mixed for 8 min and centrifuged at 10,000 rpm for 10 min at 4 °C. The supernatant layer was collected and then 50 μl of supernatant was injected for the UPLC-MS/MS analysis (details of the analytical method see Supporting information). […]
9. Analytical method of pharmacokinetics assay
Animal experiments were performed according to the institutional ethical guidelines on animal care and approved by the Institute Animal Care and Use Committee at Binzhou […]
Female Bal b/c mice (sourced from Jinan Pengyue Experimental Animal Breeding Co., Ltd.) approximately 6-8 weeks of age, and a weight of approximately 20-30 g. All of the mice were permitted with free access to standard pelleted food and water ad libitum and were kept in clean cages under controlled conditions (light/ dark cycle of 12 h, 60 ± 2% humidity, and 25 ± 1 °C). Before the day of administration, […] were fasted for 12 h but allowed water ad libitum.
9.2 Design of bioavailability study
The mice were divided into 4 groups each having six mice and were collected at crossover time points, with three mice at each point. Pharmacokinetics (PK) was […]
evaluated after a single dose of 30 mg/kg oral gavage (Oral) and 10 mg/kg intravenous […]
(i.v.) administration. The blood samples were obtained from the suborbital veniplex.
Each cohort had three mice, and plasma was collected at pre, 5 min, 15 min, 30 min, 1 […]
h, 2 h, 4 h, 6 h, 8 h, 12 h, and 24 h post dose for intravenous administration. Plasma […]
was collected at pre, 15 min, 30 min, 1 h, 2 h, 4 h, 6 h, 8 h, 12 h, and 24 h post dose for […]
9.3 Samples collection and quantitative analysis
Approximately 200 μL of blood was collected at each time point. All blood samples […]
were put into plastic microcentrifuge tubes containing Heparin-Na as anticoagulant. […]
microcentrifuge tubes with blood samples and anticoagulant were inverted several […]
times for proper mixing of the tube contents to centrifugation for plasma. Plasma […]
samples will be centrifuged at 12000 rpm for 8 min at 4 ℃ to obtain the supernatant.
The serum sample (25 μL) was treated with acetonitrile (100 μL), after which the […]
mixture was vortex-mixed for 8 min and centrifuged at 10000 rpm for 10 min at 4 ℃.
The supernatant layer was collected and then 50 μL of supernatant was injected for the […]
9.4 Chromatography and mass spectrometry conditions […]

[2] = iv, i.v. 10 mg/kg, read-out: Cmax i.v.
[3] = oral 30 mg/kg, read-out: Cmax Oral
[4] = iv, i.v. 10 mg/kg, mean n = 3, read-out: t1/2 i.v. (converted)
[5] = iv, i.v. 10 mg/kg, read-out: AUC0→∞ i.v.
[6] = oral 30 mg/kg, mean n = 3, read-out: t1/2 Oral (converted)
[7] = oral 30 mg/kg, read-out: AUC0→t Oral
[8] = oral 30 mg/kg, read-out: AUC0→∞ Oral
[9] = po, 30 mg/kg, oral 30 mg/kg, read-out: tmax Oral

Sequence of human A2A AR (P29274 whole entry): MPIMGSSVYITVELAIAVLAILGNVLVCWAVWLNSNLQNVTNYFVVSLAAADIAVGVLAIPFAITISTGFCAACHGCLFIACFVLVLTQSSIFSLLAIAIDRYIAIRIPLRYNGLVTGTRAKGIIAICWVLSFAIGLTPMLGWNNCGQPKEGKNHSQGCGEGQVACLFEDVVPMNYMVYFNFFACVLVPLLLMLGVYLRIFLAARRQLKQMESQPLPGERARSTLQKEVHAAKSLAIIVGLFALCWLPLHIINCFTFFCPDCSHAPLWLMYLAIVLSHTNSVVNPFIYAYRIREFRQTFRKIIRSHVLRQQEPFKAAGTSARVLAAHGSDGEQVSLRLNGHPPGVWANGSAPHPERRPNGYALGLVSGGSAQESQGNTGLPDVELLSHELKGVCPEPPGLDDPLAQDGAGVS

SMILES: Cc1c(C#N)cccc1-c1cc(-c2cn(Cc3cccc(C#N)n3)nn2)nc(N)n1 [Compound 7f, 6-((4-(2-Amino-6-(3-cyano-2-methylphenyl)pyrimidin-4-yl)-1H-1,2,3-triazol-1-yl)methyl)picolinonitrile]
- IC50 (human A2A AR): 24.04 ± 0.06 nM
- inhibition at 0.01 µM (human A2A AR): 54.9 ± 1.19%
- inhibition at 0.1 µM (human A2A AR): 84.2 ± 2.94%
- inhibition at 1 µM (human A2A AR): 92.41 ± 0.43%
- fold less active than compound 7i (cAMP IC50, A2A receptor) (human A2A AR; ratio of cAMP IC50 values vs 7i): 4 fold
- melting point: 147 to 148 °C
- inhibition at 0.01 µM (human A2B AR; CHO-K1, compound at 10 nM, mean ± SEM, read-out: hA2B AR percentage of inhibition (I%) of cAMP, 10 nM (converted)): 10.8%
- inhibition at 0.1 µM (human A2B AR; CHO-K1, mean ± SEM): 102.6 ± 0.24%
- Cmax [1, 2]: 5010 ng/mL
- Cmax [1, 3]: 7160 ng/mL
- Tmax ([1]; iv, 10 mg/kg, i.v. 10 mg/kg, read-out: tmax i.v.): 0.25 h
- half-life [1, 4]: 2.67 h
- AUC(0-inf) [1, 5]: 17300 ng·h/mL
- bioavailability [1]: 87.7%
- half-life [1, 6]: 4.12 h
- AUC(0-t) [1, 7]: 45500 ng·h/mL
- AUC(0-inf) [1, 8]: 46200 ng·h/mL
- Tmax [1, 9]: 2 h
- AUC0→t/Dose i.v. ([1]; i.v. 10 mg/kg): 1728.68 (µg/L*h)/(mg/kg)
- AUC0→∞/Dose i.v. ([1]; i.v. 10 mg/kg): 1731.60 (µg/L*h)/(mg/kg)
- Cmax/Dose i.v. ([1]; i.v. 10 mg/kg): 501.03 (µg/L)/(mg/kg)
- AUC0→t/Dose Oral ([1]; oral 30 mg/kg): 1516.35 (µg/L*h)/(mg/kg)
- AUC0→∞/Dose Oral ([1]; oral 30 mg/kg): 1541.08 (µg/L*h)/(mg/kg)
- Cmax/Dose Oral ([1]; oral 30 mg/kg): 238.76 (µg/L)/(mg/kg)

SMILES: Cc1c(C#N)cccc1-c1cc(-c2cn(Cc3cccc(C(N)=O)n3)nn2)nc(N)n1 [Compound 7i, 6-((4-(2-Amino-6-(3-cyano-2-methylphenyl)pyrimidin-4-yl)-1H-1,2,3-triazol-1-yl)methyl)picolinamide]
- IC50 (human A2A AR): 6.007 ± 0.05 nM
- inhibition at 0.01 µM (human A2A AR): 32.7 ± 1.8%
- inhibition at 0.1 µM (human A2A AR): 95.9 ± 3.36%
- inhibition at 1 µM (human A2A AR): 103 ± 2.82%
- melting point: 151 to 152 °C
- IC50 (human A2B AR; CHO cells expressing hA2B AR, mean ± SEM, read-out: cAMP IC50 hA2B AR): 14.1 ± 2.05 nM
- inhibition at 0.1 µM (human A2B AR; CHO-K1, mean ± SEM): 103.3 ± 0.63%
- fold more active than AB928 (cAMP IC50, A2B AR) (human A2B AR; ratio of cAMP IC50 values vs AB928): 1.8 fold
- Cmax [1, 2]: 7270 ng/mL
- Cmax [1, 3]: 1010 ng/mL
- half-life [1, 4]: 2.19 h
- AUC(0-t) ([1]; iv, i.v. 10 mg/kg, read-out: AUC0→t i.v.): 4480 ng·h/mL
- AUC(0-inf) [1, 5]: 4480 ng·h/mL
- bioavailability [1]: 58.8%
- half-life [1, 6]: 4.82 h
- AUC(0-t) [1, 7]: 7900 ng·h/mL
- AUC(0-inf) [1, 8]: 8150 ng·h/mL
- Tmax [1, 9]: 1 h
- AUC0→t/Dose i.v. ([1]; i.v. 10 mg/kg): 448.46 (µg/L*h)/(mg/kg)
- AUC0→∞/Dose i.v. ([1]; i.v. 10 mg/kg): 448.48 (µg/L*h)/(mg/kg)
- Cmax/Dose i.v. ([1]; i.v. 10 mg/kg): 726.66 (µg/L)/(mg/kg)
- AUC0→t/Dose Oral ([1]; oral 30 mg/kg): 263.50 (µg/L*h)/(mg/kg)
- AUC0→∞/Dose Oral ([1]; oral 30 mg/kg): 271.51 (µg/L*h)/(mg/kg)
- Cmax/Dose Oral ([1]; oral 30 mg/kg): 33.58 (µg/L)/(mg/kg)

Source: PMC9154793, “Design, synthesis, and biological evaluation of triazole-pyrimidine-methylbenzonitrile derivatives as dual A2A/A2B adenosine receptor antagonists” (Journal of Enzyme Inhibition and Medicinal Chemistry, 2022)
